Tested on: cabbage moth (Plutella xylostella)
Test: Cabbage moth mortality test on sprayed cabbage seedling (Test method 23)
Format: in vivo
Details: 500 ppm, 20 mL/seedling sprayed on cabbage; 5 second instar larvae; after 5 days
Protocol: The present compound is made to a formulation according to a similar method to that described in the Formulation Example 6, and thereto is added water containing 0.03 v/v % of a spreader to prepare a diluted solution containing a prescribed concentration of the test compound.
Cabbage (Brassicae oleracea) seedling (on the developmental stage of the second to third true leaf) is planted in a cup, and the diluted solutions are sprayed into the seedling at a ratio of 20 mL/seedling. Thereafter, the stem and leaf of the seedling is cut out and is then installed into the container that is covered with the filter paper. Five (5) cabbage moth (Plutella xylostella) at the second instar larval stages are released into the cup. After 5 days, the surviving insects are counted, and the mortality of insects is calculated by the following equation. Mortality (%)={1−the number of the surviving insects/5}×100

SMILES: COC=C(Cc1cc(OCc2ccccc2)ccc1C)C(=O)OC [compound 28]
- mortality: 100%
